US7482379B2, “Propenoyl hydrazides” (priority 2004, dated 2009)
Peptide text beside a SMILES is read from it. * marks the point of attachment. AMC = Cc1cc(=O)oc2cc(N*)ccc12; Cbz = O=C(OCc1ccccc1)*

Columns and labels:
Cathepsin B [1] = molecular target: T1, Cathepsin B (Homo sapiens, UniProt P07858); experiment: Cathepsin B incubation inhibition assay; format: biochemical; conditions: for kobs/[I] Cathepsin B: Table 5, gingipain and clostripain specific inhibitors
Experimental: Papain and Cathepsin B. The incubation method was used to measure the irreversible inhibition of papain and cathepsin B. […] Pseudo first-order inactivation rate constants were obtained from plots of ln vt/vo versus time.

Calpain I = molecular target: T2, Calpain I (Sus scrofa, UniProt P35750); experiment: Calpain I incubation inhibition assay; format: biochemical, porcine; conditions: Table 4, cross reactivity of caspase inhibitors; listed as Cbz-Leu-Glu-Thr-AAsp-trans-CH═CH—COOEt
T2 construct: by the incubation method with calpain I from porcine erythrocytes; from tissue; host or cells: porcine erythrocytes
T2 sequence (P35750 1-714): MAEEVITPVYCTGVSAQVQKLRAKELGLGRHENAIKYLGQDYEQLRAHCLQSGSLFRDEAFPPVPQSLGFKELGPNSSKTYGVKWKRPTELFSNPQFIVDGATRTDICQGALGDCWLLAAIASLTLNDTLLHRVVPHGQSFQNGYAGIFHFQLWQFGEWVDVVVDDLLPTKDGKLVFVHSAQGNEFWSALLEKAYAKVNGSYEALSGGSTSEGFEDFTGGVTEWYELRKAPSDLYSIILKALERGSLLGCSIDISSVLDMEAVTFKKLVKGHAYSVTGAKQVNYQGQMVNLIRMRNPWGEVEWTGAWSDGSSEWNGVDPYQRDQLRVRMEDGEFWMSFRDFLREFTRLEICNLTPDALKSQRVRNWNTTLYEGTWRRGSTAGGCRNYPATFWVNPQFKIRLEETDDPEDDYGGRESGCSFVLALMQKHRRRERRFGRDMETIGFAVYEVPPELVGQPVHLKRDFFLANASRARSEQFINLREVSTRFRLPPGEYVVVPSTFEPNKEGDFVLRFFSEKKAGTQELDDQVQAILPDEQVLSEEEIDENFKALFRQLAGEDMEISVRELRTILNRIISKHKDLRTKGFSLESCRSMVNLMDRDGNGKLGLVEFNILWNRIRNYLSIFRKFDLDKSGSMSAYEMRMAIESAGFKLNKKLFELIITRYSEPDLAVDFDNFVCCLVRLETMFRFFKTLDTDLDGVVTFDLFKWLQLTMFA
T2 sequence (P04574 1-266 partner): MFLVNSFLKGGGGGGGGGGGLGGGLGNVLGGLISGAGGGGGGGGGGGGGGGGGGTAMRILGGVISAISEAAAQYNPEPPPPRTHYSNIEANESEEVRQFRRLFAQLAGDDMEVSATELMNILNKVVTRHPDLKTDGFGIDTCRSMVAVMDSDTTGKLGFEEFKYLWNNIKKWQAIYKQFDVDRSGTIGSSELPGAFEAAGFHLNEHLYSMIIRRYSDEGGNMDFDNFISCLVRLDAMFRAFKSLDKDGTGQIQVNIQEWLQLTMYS
Experimental: Calpain I. Irreversible kinetic assays were performed by the incubation method with calpain I from porcine erythrocytes. […] At various time intervals 50 μL aliquots were withdrawn from the incubation mixture and added to 200 μL enzyme buffer containing Suc-Leu-Tyr-AMC (1.6 mM). […] Pseudo first-order rate constants (kobs) were obtained from plots of ln vt/vo versus time.

Caspase-3 = molecular target: T3, Caspase-3 (Homo sapiens, UniProt P42574); experiment: Caspase-3 progress curve inhibition assay; conditions: second-order rate constant; Ac-DEVD-AMC substrate; Pipes buffer pH 7.2
T3 sequence (P42574 29-175 limits assumed): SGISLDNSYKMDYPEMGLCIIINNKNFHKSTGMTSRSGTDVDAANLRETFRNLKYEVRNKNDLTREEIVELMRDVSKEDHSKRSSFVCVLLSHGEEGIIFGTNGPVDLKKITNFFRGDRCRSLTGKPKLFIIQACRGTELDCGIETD
T3 sequence (P42574 176-277 limits assumed): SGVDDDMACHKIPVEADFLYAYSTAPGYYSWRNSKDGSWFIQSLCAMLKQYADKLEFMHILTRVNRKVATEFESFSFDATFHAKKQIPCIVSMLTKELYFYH

Caspase-9 = molecular target: T4, Caspase-9 (Homo sapiens, UniProt P55211); experiment: Caspase-9 progress curve inhibition assay; conditions: second-order rate constant; Ac-LEHD-AFC substrate; Hepes buffer pH 7.0 with 0.7 M sodium citrate
T4 sequence (P55211 1-315 limits assumed): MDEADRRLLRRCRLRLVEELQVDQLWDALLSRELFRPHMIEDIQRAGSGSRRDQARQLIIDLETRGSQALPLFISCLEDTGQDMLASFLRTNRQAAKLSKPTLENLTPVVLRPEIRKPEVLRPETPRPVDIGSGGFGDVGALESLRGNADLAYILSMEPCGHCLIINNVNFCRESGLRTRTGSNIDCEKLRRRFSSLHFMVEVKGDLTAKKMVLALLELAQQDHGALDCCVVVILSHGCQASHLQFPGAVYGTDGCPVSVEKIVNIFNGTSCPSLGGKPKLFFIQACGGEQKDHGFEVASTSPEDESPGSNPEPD
T4 sequence (P55211 331-416 limits assumed): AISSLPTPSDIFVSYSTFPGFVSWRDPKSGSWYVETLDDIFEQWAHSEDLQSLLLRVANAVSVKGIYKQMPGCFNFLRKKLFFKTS

Cathepsin B [2] = molecular target: T1, Cathepsin B; conditions: irreversible inhibition; background art; cited from earlier work
cathepsin L = cathepsin L (Homo sapiens, UniProt P07711); conditions: irreversible inhibition; background art; cited from earlier work
cathepsin L, sequence (P07711 114-333, species assumed): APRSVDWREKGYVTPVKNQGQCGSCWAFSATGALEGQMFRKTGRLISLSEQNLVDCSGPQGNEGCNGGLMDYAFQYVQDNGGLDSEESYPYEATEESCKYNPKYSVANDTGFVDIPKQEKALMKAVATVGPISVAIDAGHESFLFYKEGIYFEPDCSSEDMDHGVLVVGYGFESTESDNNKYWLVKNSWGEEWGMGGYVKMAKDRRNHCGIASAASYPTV

clan CD proteases = conditions: background art; cited from earlier work
S. mansoni legumain [3] = molecular target: S. mansoni legumain (Schistosoma mansoni, UniProt P09841, N192C); experiment: S. mansoni legumain (SmAE) inhibition assay; format: biochemical
S. mansoni legumain (Schistosoma mansoni, UniProt P09841, N192C), sequence (P09841 32-291 N192C): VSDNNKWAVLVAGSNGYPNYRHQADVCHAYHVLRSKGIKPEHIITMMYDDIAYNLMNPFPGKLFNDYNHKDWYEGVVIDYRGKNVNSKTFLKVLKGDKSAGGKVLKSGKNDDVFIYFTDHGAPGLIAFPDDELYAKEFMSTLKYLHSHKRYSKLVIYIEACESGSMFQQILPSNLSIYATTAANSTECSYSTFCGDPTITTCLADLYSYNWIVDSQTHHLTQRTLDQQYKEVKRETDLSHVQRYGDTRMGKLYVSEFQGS

Gingipain K = Gingipain K (Porphyromonas gingivalis, UniProt Q51817); experiment: biochemical; format: biochemical; conditions: for kinact/KI: pH 8, read-out: kobs/[I] Gingipain K; for k2 Gingipain K: Table 3, Suc-Ala-Phe-Lys-AMC substrate, pH 8.0
Gingipain K, sequence (Q51817 229-1732 limits assumed): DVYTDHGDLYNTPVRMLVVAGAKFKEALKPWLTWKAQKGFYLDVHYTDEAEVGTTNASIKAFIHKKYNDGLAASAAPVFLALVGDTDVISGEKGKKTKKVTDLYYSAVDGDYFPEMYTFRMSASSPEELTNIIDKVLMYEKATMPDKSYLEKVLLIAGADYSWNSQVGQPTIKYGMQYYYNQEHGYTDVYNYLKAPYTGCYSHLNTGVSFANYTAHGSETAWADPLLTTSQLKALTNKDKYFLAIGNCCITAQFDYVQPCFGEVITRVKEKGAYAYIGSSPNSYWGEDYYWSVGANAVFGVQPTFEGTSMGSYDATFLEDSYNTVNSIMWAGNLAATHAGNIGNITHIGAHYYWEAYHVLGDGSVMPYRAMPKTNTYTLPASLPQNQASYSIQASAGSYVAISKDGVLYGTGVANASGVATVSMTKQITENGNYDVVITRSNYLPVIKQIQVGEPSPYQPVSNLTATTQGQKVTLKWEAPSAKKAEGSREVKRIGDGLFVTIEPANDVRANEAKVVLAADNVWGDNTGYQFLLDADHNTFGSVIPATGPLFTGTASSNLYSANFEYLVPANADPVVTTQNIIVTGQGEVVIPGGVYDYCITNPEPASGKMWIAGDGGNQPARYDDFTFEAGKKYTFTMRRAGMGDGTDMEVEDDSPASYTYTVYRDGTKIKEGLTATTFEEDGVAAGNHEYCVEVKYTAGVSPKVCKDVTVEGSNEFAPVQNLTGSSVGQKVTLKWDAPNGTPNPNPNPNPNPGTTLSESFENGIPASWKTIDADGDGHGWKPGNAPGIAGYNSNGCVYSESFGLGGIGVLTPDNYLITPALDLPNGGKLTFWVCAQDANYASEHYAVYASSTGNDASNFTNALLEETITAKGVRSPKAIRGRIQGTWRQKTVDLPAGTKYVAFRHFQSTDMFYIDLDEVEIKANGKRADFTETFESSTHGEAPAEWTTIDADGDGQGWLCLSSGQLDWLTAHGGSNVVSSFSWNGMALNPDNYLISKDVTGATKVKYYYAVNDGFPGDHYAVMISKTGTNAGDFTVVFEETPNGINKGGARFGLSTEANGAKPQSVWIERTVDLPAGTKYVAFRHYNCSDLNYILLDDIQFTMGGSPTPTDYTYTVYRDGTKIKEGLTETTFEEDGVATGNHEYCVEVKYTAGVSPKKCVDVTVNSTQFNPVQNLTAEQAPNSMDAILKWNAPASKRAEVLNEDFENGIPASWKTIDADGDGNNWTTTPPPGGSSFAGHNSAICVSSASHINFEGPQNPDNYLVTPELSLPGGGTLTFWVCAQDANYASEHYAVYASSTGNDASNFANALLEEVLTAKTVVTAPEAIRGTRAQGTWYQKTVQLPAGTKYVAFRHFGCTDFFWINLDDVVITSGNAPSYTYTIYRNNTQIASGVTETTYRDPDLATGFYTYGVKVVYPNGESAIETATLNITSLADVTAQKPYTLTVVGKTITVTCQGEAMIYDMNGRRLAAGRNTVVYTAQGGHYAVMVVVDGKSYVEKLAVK

Papain = molecular target: T5, Papain (Carica papaya, UniProt P00784); experiment: Papain incubation inhibition assay; format: biochemical; conditions: for kinact/KI: pH 7.5, read-out: kobs/[I] Papain
T5 sequence (P00784 134-345): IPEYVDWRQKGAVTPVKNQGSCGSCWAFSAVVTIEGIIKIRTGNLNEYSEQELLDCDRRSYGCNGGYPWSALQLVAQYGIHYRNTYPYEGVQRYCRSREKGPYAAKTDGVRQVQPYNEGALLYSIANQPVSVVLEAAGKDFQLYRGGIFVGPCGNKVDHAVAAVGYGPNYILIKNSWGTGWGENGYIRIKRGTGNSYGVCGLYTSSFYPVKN
Experimental: Pseudo first-order inactivation rate constants were obtained from plots of ln vt/vo versus time.
The incubation method was also used for papain. The inhibition incubation buffer for papain was 50 mM Hepes buffer at pH 7.5, containing 2.5 mM DTT and 2.5 mM EDTA. The assay used the substrate Z-Phe-Arg-pNA (53.7 μM) in the same buffer. The approximate concentration of papain added to the incubation buffer was 0.29 mg/mL. The release of p-nitroanilide was monitored at 405 nm with a Molecular Devices Thermomax microplate reader.

S. mansoni legumain [4] = conditions: background art, cited from earlier work
human legumain = molecular target: T6, human legumain (Homo sapiens, UniProt Q99538); conditions: synthetic substrate; background art; cited from earlier work
T6 sequence (Q99538 18-323): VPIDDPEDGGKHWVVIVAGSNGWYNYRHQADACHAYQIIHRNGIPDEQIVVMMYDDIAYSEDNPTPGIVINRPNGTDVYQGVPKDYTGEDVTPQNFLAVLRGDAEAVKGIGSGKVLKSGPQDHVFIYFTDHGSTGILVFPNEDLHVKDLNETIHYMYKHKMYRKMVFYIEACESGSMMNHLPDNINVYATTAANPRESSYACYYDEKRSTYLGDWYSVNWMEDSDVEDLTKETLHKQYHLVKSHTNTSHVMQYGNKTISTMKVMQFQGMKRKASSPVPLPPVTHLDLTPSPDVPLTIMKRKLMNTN

Gingipain R = Gingipain R inhibition; format: biochemical; conditions: Table 3
Clostripain = Clostripain (Hathewaya histolytica, UniProt P09870); conditions: Table 3; Z-Phe-Arg-AMC substrate; pH 7.6
Clostripain, sequence (P09870 51-526): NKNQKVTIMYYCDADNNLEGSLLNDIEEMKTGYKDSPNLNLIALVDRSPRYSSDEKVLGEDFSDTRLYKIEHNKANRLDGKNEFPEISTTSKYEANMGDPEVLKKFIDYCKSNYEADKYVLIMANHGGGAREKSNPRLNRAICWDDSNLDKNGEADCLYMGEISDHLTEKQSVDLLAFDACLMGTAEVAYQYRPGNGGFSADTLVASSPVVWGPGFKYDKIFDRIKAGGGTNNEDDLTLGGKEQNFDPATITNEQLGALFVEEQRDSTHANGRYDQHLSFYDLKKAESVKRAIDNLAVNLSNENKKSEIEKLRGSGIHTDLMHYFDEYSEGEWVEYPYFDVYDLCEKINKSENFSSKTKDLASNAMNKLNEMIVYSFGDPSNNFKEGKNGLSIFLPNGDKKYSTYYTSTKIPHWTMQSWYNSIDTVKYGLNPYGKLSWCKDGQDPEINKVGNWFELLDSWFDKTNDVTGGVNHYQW

Trypsin = conditions: Table 5, gingipain and clostripain specific inhibitors

Structure (SMILES): CCOC(=O)/C=C/C(=O)N(CC(=O)O)NC(=O)[C@@H](NC(=O)[C@H](CCC(=O)O)NC(=O)[C@H](CC(C)C)NC(=O)OCc1ccccc1)[C@@H](C)O (relative stereo) [Cbz-Leu-Glu-Thr-AAsp-CH═CH—COOEt, N^2—(N-Berzyloxycarbonylleucylglutamylthreonyl)-N^1-carboxymethyl-N^1-trans-(3-ethoxycarbonylpropenoyl)hydrazine]
- k2 Cathepsin B (Cathepsin B [1]; Table 4, cross reactivity of caspase inhibitors, listed as Cbz-Leu-Glu-Thr-AAsp-trans-CH═CH—COOEt): <10 M⁻¹ s⁻¹
- k2 Calpain (Calpain I): <10 M⁻¹ s⁻¹
- k2 Caspase-3 (Caspase-3): 5,560 M^−1s^−1
- k2 Caspase-9 (Caspase-9): 37 M⁻¹ s⁻¹

Structure (SMILES): CC(C)CCNC(=O)[C@H](CC(C)C)NC(=O)/C=C/C(=O)O (stereo in doubt) [fumarate derivative of E-64c, trans-HOOCCH═CH—CO-Leu-NH(CH2)2CH(CH3)2]
- kapp cathepsin B (Cathepsin B [2]): 625 M⁻¹ s⁻¹
- kapp cathepsin L (cathepsin L): 2272 M⁻¹ s⁻¹
- inhibition of clan CD proteases (clan CD proteases): do not inhibit

Structure (SMILES): C[C@H](NC(=O)OCc1ccccc1)C(=O)N[C@@H](C)C(=O)NN(CC(N)=O)C(=O)/C=C/C(=O)N(Cc1ccccc1)Cc1ccccc1 [Cbz-Ala-Ala-AAsn-CH═CH—CON(Bzl)2, N^2—(N-BenzyloxycarbonylaIanylalanyl)-N^1-carbamoylmethyl-N^1-trans-(3-dibenzylcarbamoylpropenoyl)hydrazine]
- IC50 (S. mansoni legumain [3]): 0.045 µM
- kinact/KI (S. mansoni legumain [3]; read-out: kobs/[I]): 5800 M⁻¹ s⁻¹
- kinact/KI (Gingipain K): 2 M⁻¹ s⁻¹
- kinact/KI (Papain): 1 M⁻¹ s⁻¹

Structure (SMILES): C[C@H](NC(=O)OCc1ccccc1)C(=O)N[C@@H](C)C(=O)NN(CC(N)=O)C(=O)/C=C/C(=O)NCCc1ccccc1 [Cbz-Ala-Ala-AAsn-CH═CH—CONHCH2CH2Ph, N^2—(N-Benzyloxycarbonylalanylalanyl)-N^1-carbamoylmethyl-N^1-trans-(3-phenethylcarbamoylpropenoyl)hydrazine]
- IC50 (S. mansoni legumain [3]): 0.6 µM
- kobs/[I] Papain (Papain; Table 6, legumain specific inhibitors, NI = no inhibition after 20 minutes of incubation): 12 M⁻¹ s⁻¹
- kinact/KI (Papain): 12 M⁻¹ s⁻¹

Structure (SMILES): CCOC(=O)/C=C/C(=O)N(CC(N)=O)NC(=O)[C@H](C)NC(=O)[C@H](C)NC(=O)OCc1ccccc1 [Cbz-Ala-Ala-AAsn-CH═CH—COOEt, N^2—(N-BenzyloxycarbonylalanylaIanyl)-N^1-carbamoylmethyl-N^1-trans-(3-ethylesterpropenoyl)hydrazine]
- kinact/KI (Gingipain K): 6 M⁻¹ s⁻¹
- kinact/KI (Cathepsin B [1]; pH 6, read-out: kobs/[I] Cathepsin B): 1 M⁻¹ s⁻¹

Structure (SMILES): Cc1cc(=O)oc2cc(NC(=O)[C@H](CC(N)=O)NC(=O)[C@H](C)NC(=O)[C@H](C)NC(=O)OCc3ccccc3)ccc12 [Cbz-Ala-Ala-Asn-AMC] (Cbz-Ala-Ala-Asn-{AMC})
- Km (S. mansoni legumain [4]; synthetic substrate): 90 µM
- Km (human legumain): 80 µM

Structure (SMILES): C[C@H](NC(=O)[C@H](Cc1ccccc1)NC(=O)OCc1ccccc1)C(=O)C=[N+]=[N-] [Cbz-Phe-Ala-CHN2]
- inhibition of S. mansoni legumain (S. mansoni legumain [4]): not inhibited

Structure (SMILES): CC(C)C[C@H](NC(=O)[C@H]1O[C@@H]1C(=O)O)C(=O)NCCCCN=C(N)N [Example E-64, E-64]
- inhibition of S. mansoni legumain (S. mansoni legumain [4]): not inhibited

Structure (SMILES): CC(C)CCNC(=O)[C@H](CC(C)C)NC(=O)[C@H]1O[C@@H]1C(=O)O [Example E-64c, E-64c]
- inhibition of clan CD proteases (clan CD proteases): do not inhibit

Structure (SMILES): CCOC(=O)C=CC(=O)N(CCCCN)NC(=O)[C@H](CC(C)C)NC(=O)CCc1ccccc1 [PhPr-Leu-ALys-CH═CH—COOEt]
- k2 Gingipain K (Gingipain K): 3,280,000 M^−1s^−1
- k2 Gingipain R (Gingipain R): 289 M⁻¹ s⁻¹
- kobs/[I] Cathepsin B (Cathepsin B [1]): 9 M⁻¹ s⁻¹
- k2 Clostripain (Clostripain): 40,750 M^−1s^−1
- kobs/[I] Trypsin (Trypsin): 17 M⁻¹ s⁻¹

Structure (SMILES): CCOC(=O)C=CC(=O)N(CCCN)NC(=O)[C@H](CC(C)C)NC(=O)CCc1ccccc1 [PhPr-Leu-AOrn-CH═CH—COOEt]
- k2 Gingipain K (Gingipain K): 927,000 M^−1s^−1
- k2 Gingipain R (Gingipain R): 32 M⁻¹ s⁻¹
- kobs/[I] Cathepsin B (Cathepsin B [1]): 3 M⁻¹ s⁻¹
- k2 Clostripain (Clostripain): 788 M⁻¹ s⁻¹
